The values below come from PMC8074941, “Synthesis of cyclotetrapeptide analogues of c-PLAI and evaluation of their antimicrobial properties” (Royal Society Open Science, 2021).

The data set is described as follows: head-to-tail lactamisation of linear tetrapeptide (N-terminal Pro amine + C-terminal Ile acid), HATU (2 equiv), DIPEA (3 equiv). Particulars: the molecule shown is the open-chain precursor; 12-membered ring; CH2Cl2 (with ca. 0.2-0.5% DMF); 0.4 mM; 25.0 °C; 1.5 h.

Turning to `CC[C@H](C)[C@H](NC(=O)[C@H](C)NC(=O)[C@H](CCCCNC(=O)OC(C)(C)C)NC(=O)[C@@H]1CCCN1)C(=O)O` [H-Pro-Lys(Boc)-Ala-Ile-OH], the ring closure, isolated yield was determined as 43%.
